Measured values taken from patent US12419854B2, “Methods for treating or preventing gout or hyperuricemia” (Arthrosi Therapeutics, Inc., priority 2018, dated 2025).
Read-outs that look alike come from different tables or passages of the source.

Legend:
[1] = test system: serum uric acid (sUA); test: Phase 1 multiple ascending dose study, pharmacodynamics (serum uric acid); type: in vivo, human; conditions: 25, 50 or 75 mg once daily oral capsules, fasted, 10 days; in words
Source text: An additional 6 subjects received placebo.
Steady-state sUA lowering effect was achieved after approximately 5 days.

[2] = Phase 1 single dose study, plasma pharmacokinetics; type: in vivo, human; conditions: for power model intercept (a) of exposure versus dose: male, human, plasma, oral
Description: (§1) The dose groups included Cohort 1 (15 mg or placebo, fasted, oral suspension), Cohort 2 (50 mg or placebo, fasted, suspension), Cohort 3 (100 mg or placebo, fasted, oral suspension), Cohort 4 (150 mg or placebo, fasted, oral suspension), Cohort 6 (50 mg or placebo, fed, oral suspension), and Cohort 7 (50 mg or placebo, fasted, oral capsule). […] An additional 8 subjects received placebo.
The results are consistent with observation in animal testing and higher exposure of S-enantiomer was attributed to the conversion of the R-enantiomer in vivo.

[3] = test system: serum uric acid (sUA); test: Phase 1 single dose study, pharmacodynamics (serum uric acid); type: in vivo, human; conditions: for Percent change in serum uric acid, mean, time-matched (Day-1) baseline: 0 h
Description: as §1
Decrease in sUA appeared to reach a plateau at 100 mg or lower.

[4] = test system: Cynomolgus Monkeys; test: 4-week oral toxicity study in cynomolgus monkeys; type: in vivo
Source text: (§2) On Day 29, surviving TS animals (all animals in study) were euthanized and subjected to a full gross necropsy, which included a macroscopic examination of the external surface of the body, all orifices, cranial cavity, external surface of the brain, the thoracic, abdominal and pelvic cavities and their viscera, cervical areas, carcass and genitalia. Organs were weighed as soon as possible from all main study animals at the scheduled necropsies. Tissues from animals at the terminal sacrifice, from animals found dead or moribund-sacrificed, and gross lesions from all animals, were embedded in paraffin, sectioned, stained with hematoxylin and eosin and examined microscopically by a board certified veterinary pathologist.

[5] = test system: Sprague-Dawley Rats; test: 4-week oral toxicity study in Sprague-Dawley rats; type: in vivo; conditions: rat
Source text: as §2, with “Tissues from Groups 1 and 5 animals at” for “Tissues from animals at”

[6] = biological target: T1, human URAT1 uptake transporter (Homo sapiens, UniProt Q96S37); test: Inhibition of URAT1-mediated uric acid uptake in MDCKII cells stably expressing human URAT1; type: cell-based
T1 construct: expressed in transfected cells
T1 sequence (Q96S37 1-553): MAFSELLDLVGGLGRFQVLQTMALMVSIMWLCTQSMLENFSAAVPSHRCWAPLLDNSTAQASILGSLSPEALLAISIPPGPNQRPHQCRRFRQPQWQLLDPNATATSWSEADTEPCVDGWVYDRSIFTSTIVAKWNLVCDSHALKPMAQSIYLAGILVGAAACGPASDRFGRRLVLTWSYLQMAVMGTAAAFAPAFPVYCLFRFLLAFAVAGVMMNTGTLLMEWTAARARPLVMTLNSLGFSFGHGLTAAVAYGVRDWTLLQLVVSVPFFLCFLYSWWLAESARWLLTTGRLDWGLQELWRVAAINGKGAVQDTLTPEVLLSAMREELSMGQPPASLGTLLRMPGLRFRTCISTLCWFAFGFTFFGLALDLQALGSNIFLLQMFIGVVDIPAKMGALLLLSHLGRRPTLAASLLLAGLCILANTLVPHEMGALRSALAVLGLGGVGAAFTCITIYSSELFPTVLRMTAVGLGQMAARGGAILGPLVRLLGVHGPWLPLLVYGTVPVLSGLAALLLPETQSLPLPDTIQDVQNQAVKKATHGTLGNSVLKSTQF
Description: Uptake experiments were performed using MDCKII cells stably expressing the human URAT1 uptake transporter. Cells were cultured at 37+1° C. in an atmosphere of 95:5 air:CO2 and were plated onto standard 96-well tissue culture plates at the cell number described in Table 1.
Radiolabeled probe substrate transport was determined by measuring an aliquot (35 μL) from each well for liquid scintillation counting.

[7] = In vitro metabolism in human liver microsomes (HPLC-MS profiling); type: in vitro ADME; conditions: for % MS response, Parent: human liver microsomes 0.5 mg/mL, NADPH, 60 minutes, 37° C.
Description: After pre-warming the mixture at 37° C. for 5 minutes, the reaction was initiated by the addition of 1 mM of NADPH and incubated for 60 minutes at 37° C. in a shaking water bath. The reaction was terminated by the addition of 0.5 mL ice-cold acetonitrile. Time 0 incubation was also performed by adding acetonitrile before the addition of microsomes to the incubation mixture as a reference sample for each species. Following vortex and centrifugation at 15,000 g for 3 minutes at room temperature, resulting supernatant was concentrated under nitrogen flow at 33° C., until approximately 0.5 mL of sample remained. The extract was then transferred to a 1.5-mL centrifuge vial for centrifugation at 15,000 g for 3 minutes. Finally, aliquots of the supernatant were transferred to HPLC vials for HPLC-MS analyses.
MS Analysis: Mass spectral analyses were performed on an Agilent single quadruple mass spectrometer equipped with an Agilent 1100 HPLC system. The mass spectrometer was fitted with an electrospray ionization (ESI) source and operated in a negative scan mode between 400 and 500 amu:
Metabolic profiling of benzbromarone was conducted using a similar method as described above.

Structure (SMILES): [2H]c1c([2H])c([2H])c2c(C(=O)c3cc(Br)c(O)c(Br)c3)c(C(C)O)oc2c1[2H] (racemic) [Compound 1, (3,5-dibromo-4-hydroxyphenyl)(2-(1-hydroxyethyl)benzofuran-3-yl-4,5,6,7-d4)methanone]
- mean sUA levels versus placebo group [1]: dose-dependent decreases
- food effect on Cmax in the fed state ([2]; 50 mg, fed versus fasted): ~33%
- dose proportionality of AUC (AUCinf) ([2]; 15 to 150 mg, fasted, in words): dose proportional increases
- dose proportionality of Cmax ([2]; 15 to 150 mg, fasted, in words): slightly less than dose proportionality increase
- power model intercept (a) of exposure versus dose ([2]; 15 to 150 mg, fasted, AUCinf (μg · h/mL) = a × dose^b, read-out: power model intercept, AUCinf): 944 ng·h/mL
- power model intercept (a) of exposure versus dose ([2]; 15 to 150 mg, fasted, Cmax (μg/mL) = a × dose^b, read-out: power model intercept, Cmax): 96.6 ng/mL
- AUCinf (Total) ([2]; single oral dose 50 mg, fed, suspension (C6)): 51200 ng·h/mL
- volume of distribution, range over dose groups ([2]; single oral dose 15-150 mg): 14 to 18 L
- sUA reduction with versus without food ([3]; 50 mg single dose, throughout 120 hours post-dose, in words): no difference
- Percent change in serum uric acid, mean, time-matched (Day-1) baseline ([3]; single oral dose 15 mg, fasted): −3.4%
- Percent change in serum uric acid, mean, time-matched (Day-1) baseline ([3]; single oral dose 50 mg, fasted (suspension)): −8.9%
- Serum uric acid, mean ([3]; single oral dose 50 mg, fasted (suspension), −12 h (pre-dose)): 5.9 mg/dL
- Serum uric acid, mean ([3]; single oral dose 50 mg, fasted (suspension), −24 h (pre-dose)): 6.7 mg/dL
- Serum uric acid, mean ([3]; single oral dose 50 mg, fasted, Capsule, −12 h (pre-dose)): 5.5 mg/dL
- Serum uric acid, mean ([3]; single oral dose 50 mg, fasted, Capsule, −18 h (pre-dose)): 5.5 mg/dL
- Percent change in serum uric acid, mean, time-matched (Day-1) baseline ([3]; single oral dose 50 mg, fed): −1.0%
- Serum uric acid, mean ([3]; single oral dose 50 mg, fed, −12 h (pre-dose)): 6.2 mg/dL
- Serum uric acid, mean ([3]; single oral dose 50 mg, fed, −24 h (pre-dose)): 6.5 mg/dL
- Percent change in serum uric acid, mean, time-matched (Day-1) baseline ([3]; single oral dose 100 mg, fasted): −6.6%
- Serum uric acid, mean ([3]; single oral dose 150 mg, fasted, −18 h (pre-dose)): 5.7 mg/dL
- mean sUA levels versus placebo group ([3]; single oral dose 15, 50, 100, and 150 mg fasted, at 50 mg or higher, in words): dose-dependent decreases
- human equivalent of NOAEL ([4]; cynomolgus monkey, in vivo): 600 mg
- effect on food consumption of body weight ([4]; monkey, 10-150 mg/kg/day, 28 days): no effect
- liver weight ([4]; monkey, male, 150 mg/kg/day, no statistical difference): trended higher
- effect on food consumption of body weight ([5]; 2-50 mg/kg/day oral gavage, 28 days): no effect
- kidney weight ([5]; female, 50 mg/kg/day, 28 days): kidney weight increase
- liver weight ([5]; female, ≥15 mg/kg/day, 28 days): Liver weight increase
- human equivalent of NOAEL ([5]; in vivo): 500 mg
- liver weight ([5]; male, 50 mg/kg/day, 28 days): Liver weight increase
- inhibition at 10 µM ([6]; MDCK-II, at 10 μM, read-out: inhibition of URAT1 mediated uric acid accumulation): 100%
- in vitro URAT1 potency versus benzbromarone ([6]; comparison in words): better in vitro URAT1 potency than benzbromarone
- % MS response, Parent [7]: 82.5%
- formation of 6-OH benzbromarone and 5,6-di-OH benzbromarone metabolites ([7]; in words): not formed

Structure (SMILES): CCc1oc2ccccc2c1C(=O)c1cc(Br)c(O)c(Br)c1 [Benzbromarone, reference compound]
- % MS response, Parent [7]: 13.1%
